From US20260265262A1, “CDK2 INHIBITORS AND METHODS OF USING THE SAME” (Cedilla Therapeutics, Inc., priority 2022, published 2026)

Key:
Kuramochi cells = experiment: IncuCyte cell proliferation assay; format: cell-based; details: Kuramochi cells labeled with mApple-H2B, cell count 0 to 72 hours, 20 μM top concentration; read-out: IncuCyte Kuramochi RB-WT: IC50
Procedure: IncuCyte® assay was used to measure the effect of disclosed compounds on cell proliferation. Fluorescent microscopy images of cells were taken immediately after compound treatment and 72 hours later. Image analysis software was used to obtain cell counts as a function of compound concentration. Kuramochi cells labeled with mApple-H2B were seeded on 384-well assay-ready plates. Plates were placed in an IncuCyte® (Sartorius) and scanned at 0 and 72 hours. IncuCyte® software was used to count the number of fluorescent nuclei in each well. The fold change in cell count from 0 to 72 hours in wells treated with increasing compounds concentrations (10 pts, 1/2 log dilution, 20 μM top concentration) was normalized to DMSO control wells. The normalized cell counts were fit with dose response curves and a […] was calculated.

CDK2/Cyclin E1 = CDK2/Cyclin E1 (Homo sapiens, UniProt P24941); experiment: ADP-Glo Luminescent Kinase Assay (CDK2/E1-37C); format: biochemical; details: 0.18 nM CDK2/Cyclin E1, 100 μM ATP, 1.5 μM Histone H1, 37° C., 60 min pre-incubation; read-out: ADPGLO (CDK2/E1-37C): IC50
Procedure: Inhibition of CDK2/Cyclin E1 activity by the presence of small molecules was evaluated using ADP-Glo Luminescent Kinase Assay (Promega). Activated CDK2/Cyclin E1 was incubated with its substrate Histone H1 (SignalChem H10-54N) in the kinase reaction buffer (100 μM ATP, 50 mM HEPES pH 7.5, 10 mM MgCl2, 1 mM EDTA, 2 mM DTT, 0.01% Brij35, 0.5 mg/mL BSA). Luminescence was recorded with an Envision plate reader (PerkinElmer).
Dose titrations of inhibitors in 100% DMSO were combined with 0.36 nM CDK2/Cyclin E1 in reaction buffer. The mixtures were incubated for 60 minutes at 37° C. before the addition of ATP and Histone H1 substrate to initiate the kinase reaction. The final conditions were 0.18 nM CDK2/Cyclin E1, 100 μM ATP, and 1.5 μM Histone H1. The reactions were incubated at 37° C. for 90 minutes before being stopped with the addition of ADP-Glo reagent. This mixture was incubated at room temperature for 60 minutes before Kinase Detection Solution is added to generate luminescence. The stopped reactions were analyzed on an Envision plate reader. The conversion ratios were normalized to yield % activity, plotted against compound concentration, and fit to a four-parameter equation to determine the IC50 for each compound.

IC50 (CDK2/Cyclin E1) [µM] | Compound | IC50 (Kuramochi cells) [µM]
0.5 to 5 | C[C@@H](OCC12CCC(CC1)OC2)[C@@H](COC1CCC(c2nccs2)CC1)NC(=O)[C@@H]1CN(C(=O)c2cnn(Cc3ccc(C(F)(F)F)cc3)c2)CC12CN(C(=O)C1(C(F)(F)F)CC1)C2 (stereo partly drawn) [Example I-107, (S)—N-((2R,3R)-3-(2-oxabicyclo[2.2.2]octan-4-ylmethoxy)-1-((4-(thiazol-2-yl)cyclohexyl)oxy)butan-2-yl)-6-(1-(4-(trifluoromethyl)benzyl)-1H-pyrazole-4-carbonyl)-2-(1-(trifluoromethyl)cyclopropanecarbonyl)-2,6-diazaspiro[3.4]octane-8-carboxamide] | 5 to 20
0.5 to 5 | C[C@@H](OCC1(C(F)(F)F)CC1)[C@H](NC(=O)[C@@H]1CN(C(=O)c2cnn(Cc3ccc(C(F)(F)F)cc3)c2)CC12CN(C(=O)C1(C(F)(F)F)CC1)C2)C(=O)N1CCC(c2nccs2)CC1 [Example I-80, (S)—N-((2S,3R)-1-oxo-1-(4-(thiazol-2-yl)piperidin-1-yl)-3-((1-(trifluoromethyl)cyclopropyl)methoxy)butan-2-yl)-6-(1-(4-(trifluoromethyl)benzyl)-1H-pyrazole-4-carbonyl)-2-(1-(trifluoromethyl)cyclopropane-1-carbonyl)-2,6-diazaspiro[3.4]octane-8-carboxamide] | 0.5 to 5
< 0.5 | C[C@@H](OCC12CCC(CC1)OC2)[C@H](NC(=O)[C@@H]1CN(C(=O)c2cnn(Cc3ccccc3)c2)CC12CN(C(=O)C1(C(F)(F)F)CC1)C2)C(=O)N1CCN(c2ccc(C(=O)O)cc2)CC1 [Example I-87, 4-(4-(O-((2-oxabicyclo[2.2.2]octan-4-yl)methyl)-N—((S)-6-(1-benzyl-1H-pyrazole-4-carbonyl)-2-(1-(trifluoromethyl)cyclopropane-1-carbonyl)-2,6-diazaspiro[3.4]octane-8-carbonyl)-L-threonyl)piperazin-1-yl)benzoic acid] | 5 to 20
< 0.5 | COC(=O)c1ccccc1C1CCN(C(=O)[C@@H](NC(=O)[C@@H]2CN(C(=O)c3cnn(Cc4ccc(C(F)(F)F)cc4)c3)CC23CN(C(=O)C2(C(F)(F)F)CC2)C3)[C@@H](C)OCC23CCC(CC2)OC3)CC1 [Example I-11, methyl 2-(1-(O-((2-oxabicyclo[2.2.2]octan-4-yl)methyl)-N—((S)-6-(1-(4-(trifluoromethyl)benzyl)-1H-pyrazole-4-carbonyl)-2-(1-(trifluoromethyl)cyclopropane-1-carbonyl)-2,6-diazaspiro[3.4]octane-8-carbonyl)-L-threonyl)piperidin-4-yl)benzoate] | 0.5 to 5
5 to 10 | C[C@@H](OCC12CCC(CC1)OC2)[C@H](NC(=O)[C@@H]1CN(C(=O)c2cnn(Cc3ccc(C(F)(F)F)cc3)c2)CC12CN(C(=O)C1(C(F)(F)F)CC1)C2)C(=O)NCCC(=O)NS(C)(=O)=O [Example I-73, (S)—N-((2S,3R)-3-((2-oxabicyclo[2.2.2]octan-4-yl)methoxy)-1-((3-(methylsulfonamido)-3-oxopropyl)amino)-1-oxobutan-2-yl)-6-(1-(4-(trifluoromethyl)benzyl)-1H-pyrazole-4-carbonyl)-2-(1-(trifluoromethyl)cyclopropane-1-carbonyl)-2,6-diazaspiro[3.4]octane-8-carboxamide] | > 20
< 0.5 | C[C@@H](OCC12CCC(CC1)OC2)[C@H](NC(=O)[C@@H]1CN(C(=O)c2cnn(Cc3ccc(C(F)(F)F)cc3)c2)CC12CN(C(=O)C1(C(F)(F)F)CC1)C2)C(=O)N1CCC(C#N)CC1 [Example I-25, (S)—N-((2S,3R)-3-((2-oxabicyclo[2.2.2]octan-4-yl)methoxy)-1-(4-cyanopiperidin-1-yl)-1-oxobutan-2-yl)-6-(1-(4-(trifluoromethyl)benzyl)-1H-pyrazole-4-carbonyl)-2-(1-(trifluoromethyl)cyclopropane-1-carbonyl)-2,6-diazaspiro[3.4]octane-8-carboxamide] | > 20

The remaining lines, values behind:

Compound | IC50 (CDK2/Cyclin E1) [µM] | IC50 (Kuramochi cells) [µM]
C[C@@H](OCC1CCCCC1)[C@H](NC(=O)[C@@H]1CN(C(=O)c2cnn(Cc3ccccc3)c2)CC12CN(C(=O)[C@H]1CC1(C)C)C2)C(=O)N1CCN(c2ccc(C(=O)O)cc2)CC1 [Example I-28] | < 0.5 | 0.5 to 5
N#Cc1ccc(Cn2cc(C(=O)N3CC(C(=O)N[C@H](COCC45CCC(CC4)OC5)c4ccc(C(=O)O)cc4)C4(C3)CN(C(=O)C3(C(F)(F)F)CC3)C4)cn2)cc1 (stereo partly shown) [Example I-19] | > 10 | > 20
N#Cc1ccc(Cn2cc(C(=O)N3CC(C(=O)N[C@@H](COCC45CCC(CC4)OC5)c4ccc(C(=O)O)cc4)C4(C3)CN(C(=O)C3(C(F)(F)F)CC3)C4)cn2)cc1 (stereo partly drawn) [Example I-23, 4-((1R)-2-((2-oxabicyclo[2.2.2]octan-4-yl)methoxy)-1-(6-(1-(4-cyanobenzyl)-1H-pyrazole-4-carbonyl)-2-(1-(trifluoromethyl)cyclopropane-1-carbonyl)-2,6-diazaspiro[3.4]octane-8-carboxamido)ethyl)benzoic acid] | > 10 | > 20
COC(=O)C1CCN(C(=O)[C@@H](NC(=O)[C@@H]2CN(C(=O)c3cnn(Cc4ccccc4)c3)CC23CN(C(=O)[C@H]2CC2(C)C)C3)[C@@H](C)OCC2CCCCC2)CC1 [Example I-17] | < 0.5 | < 0.5
C[C@@H](OCC12CCC(CC1)OC2)[C@H](NC(=O)[C@@H]1CN(C(=O)c2cnc(O)cn2)CC12CN(C(=O)C1(C(F)(F)F)CC1)C2)C(=O)N1CCC(c2ccc(C(=O)O)c(C(F)(F)F)c2)CC1 [I-89 3rd, 4-(1-(O-((2-oxabicyclo[2.2.2]octan-4-yl)methyl)-N-(6-(5-hydroxypyrazine-2-carbonyl)-2-(1-(trifluoromethyl)cyclopropane-1-carbonyl)-2,6-diazaspiro[3.4]octane-8-carbonyl)-L-threonyl)piperidin-4-yl)-2-(trifluoromethyl)benzoic acid] | < 0.5 | > 20
COC(=O)c1ccc([C@H](COCC23CCC(CC2)OC3)NC(=O)C2CN(C(=O)c3cnn(Cc4ccc(C#N)cc4)c3)CC23CN(C(=O)C2(C(F)(F)F)CC2)C3)cc1 (stereo partly drawn) [Example I-24, methyl 4-((1R)-2-((2-oxabicyclo[2.2.2]octan-4-yl)methoxy)-1-(6-(1-(4-cyanobenzyl)-1H-pyrazole-4-carbonyl)-2-(1-(trifluoromethyl)cyclopropane-1-carbonyl)-2,6-diazaspiro[3.4]octane-8-carboxamido)ethyl)benzoate] | 5 to 10 | > 20
CC1(C)C[C@@H]1C(=O)N1CC2(CN(C(=O)c3cncs3)C[C@H]2C(=O)N2CCC[C@H](N(CC(=O)NS(C)(=O)=O)CC3CCCCC3)C2)C1 [Example I-72, 2-((cyclohexylmethyl)((S)-1-((S)-2-((S)-2,2-dimethylcyclopropane-1-carbonyl)-6-(thiazole-5-carbonyl)-2,6-diazaspiro[3.4]octane-8-carbonyl)piperidin-3-yl)amino)-N-(methylsulfonyl)acetamide] | > 10 | > 20
C[C@@H](OCC1CCCCC1)[C@H](NC(=O)[C@@H]1CN(C(=O)c2cnn(Cc3ccccc3)c2)CC12CN(C(=O)[C@H]1CC1(C)C)C2)C(=O)N1CCCC[C@@H]1C(=O)O [Example I-35] | < 0.5 | > 20
